Experimental data reported in patent US9980943B2, “Methods of treating muscular dystrophy” (BOARD OF REGENTS OF THE NEVADA SYSTEM OF HIGHER EDUCATION, …, priority 2013, dated 2018).

Legend:
Assay type in all cases: cell-based, mouse
[1] = system: α7 integrin (LacZ reporter in α7+/LacZ myotubes); assay: Myotube α7 integrin FDG assay (Burkin assay in myotubes, 96-well); details: for Burkin Assay in Myotubes, value relative to DMSO: SU9516 analogs, 96-well, N=3-6
[2] = system: β-galactosidase in CMV-LacZ C2C12 myotubes; assay: CMV-LacZ secondary screen in C2C12 myotubes (β-Gal stabilizing assay); details: for CMV-LACZ in Myotubes, signal relative to DMSO: C2C12 CMV-LacZ myotubes, fold relative to DMSO; for CMV-LACZ in Myotubes, value relative to DMSO: SU9516 analogs, C2C12 CMV-LacZ, N=2
Procedure, shortened: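 β-Gal level was the read-out, measured in a clonal C2C12 line expressing LacZ from a CMV promoter. Dose-response curves used six concentrations, 0.5 μM up to 40 μM, with duplicate points.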

[3] = system: β-galactosidase in CMV-LacZ C2C12 myoblasts; assay: CMV-LacZ secondary screen in C2C12 myoblasts (β-Gal stabilizing assay); details: for CMV-LACZ in Myoblasts (β-galactosidase activity relative to DMSO): CMV-LacZ C2C12 myoblasts; for CMV-LACZ in Myoblasts, value relative to DMSO: SU9516 analogs, C2C12 CMV-LacZ, N=2
Procedure, shortened: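 Dose-response runs at 0.5–40 μM (0.5, 1, 5, 10, 20, 40 μM; N=2 per point) used a clonal C2C12 line carrying CMV-LacZ. Cells were assayed as myoblasts or as differentiated myotubes, and β-galactosidase levels were read with the FDG fluorogenic substrate.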

[4] = system: α7 integrin (LacZ reporter in α7βgal+/− myoblasts); assay: Myoblast α7+/LacZ integrin FDG assay (Burkin assay in myoblasts, 96-well); details: 96-well; for Burkin Assay in Myoblasts, signal relative to DMSO: α7+/LacZ myoblasts; for Burkin Assay in Myoblasts, value relative to DMSO: SU9516 analogs, N=3-6

Which results are given for `CC(=O)Nc1ccc(NC(=O)c2cc(=O)c3cc(C)cc(C)c3o2)cc1` [MLS001200396-01]?
Burkin Assay in Myotubes, α7 integrin LacZ reporter signal relative to DMSO ([1]; 0.5 uM): 0.9301; Burkin Assay in Myotubes, α7 integrin LacZ reporter signal relative to DMSO ([1]; 1 uM): 0.9487; Burkin Assay in Myotubes, α7 integrin LacZ reporter signal relative to DMSO ([1]; 5 uM): 0.9829; Burkin Assay in Myotubes, α7 integrin LacZ reporter signal relative to DMSO ([1]; 10 uM): 1.264; Burkin Assay in Myotubes, α7 integrin LacZ reporter signal relative to DMSO ([1]; 20 uM): 0.6408; Burkin Assay in Myotubes, α7 integrin LacZ reporter signal relative to DMSO ([1]; 40 uM): 0.7114; CMV-LACZ in Myotubes, signal relative to DMSO ([2]; 0.5 uM): 0.9137; CMV-LACZ in Myotubes, signal relative to DMSO ([2]; 1 uM): 0.8442; CMV-LACZ in Myotubes, signal relative to DMSO ([2]; 5 uM): 0.8987; CMV-LACZ in Myotubes, signal relative to DMSO ([2]; 10 uM): 0.7738; CMV-LACZ in Myotubes, signal relative to DMSO ([2]; 20 uM): 0.9644; CMV-LACZ in Myotubes, signal relative to DMSO ([2]; 40 uM): 0.9733; CMV-LACZ in Myoblasts (β-galactosidase activity relative to DMSO) ([3]; 0.5 uM): 1.0489; CMV-LACZ in Myoblasts (β-galactosidase activity relative to DMSO) ([3]; 1 uM): 0.9157; CMV-LACZ in Myoblasts (β-galactosidase activity relative to DMSO) ([3]; 5 uM): 1.0212; CMV-LACZ in Myoblasts (β-galactosidase activity relative to DMSO) ([3]; 10 uM): 1.2107; CMV-LACZ in Myoblasts (β-galactosidase activity relative to DMSO) ([3]; 20 uM): 0.7252; CMV-LACZ in Myoblasts (β-galactosidase activity relative to DMSO) ([3]; 40 uM): 0.9011; Burkin Assay in Myoblasts, signal relative to DMSO ([4]; 0.5 uM): 0.8827; Burkin Assay in Myoblasts, signal relative to DMSO ([4]; 1 uM): 0.9245; Burkin Assay in Myoblasts, signal relative to DMSO ([4]; 5 uM): 0.5378; Burkin Assay in Myoblasts, signal relative to DMSO ([4]; 10 uM): 1.1321; Burkin Assay in Myoblasts, signal relative to DMSO ([4]; 20 uM): 0.4827; Burkin Assay in Myoblasts, signal relative to DMSO ([4]; 40 uM): 0.4794

How did the “Burkin Assay in Myotubes, α7 integrin LacZ reporter signal relative to DMSO” value ([1]; 0.5 uM) turn out when `O=C(NCCc1ccccc1)C1CCC(=O)N1C1CCCC1` (stereo not drawn) [MLS001200665-01] was run?
The value was 1.031.

And the “Burkin Assay in Myotubes, α7 integrin LacZ reporter signal relative to DMSO” value ([1]; 1 uM)?
The value was 0.8461.

And the “Burkin Assay in Myotubes, α7 integrin LacZ reporter signal relative to DMSO” value ([1]; 5 uM)?
Its value is 1.091.

What about the “Burkin Assay in Myotubes, α7 integrin LacZ reporter signal relative to DMSO” value ([1]; 10 uM) of the same compound?
Its value is 1.126.

And the “Burkin Assay in Myotubes, α7 integrin LacZ reporter signal relative to DMSO” value ([1]; 20 uM)?
The value was 0.8365.

What about the “Burkin Assay in Myotubes, α7 integrin LacZ reporter signal relative to DMSO” value ([1]; 40 uM) of the same compound?
Its value is 0.8877.

And the “CMV-LACZ in Myotubes, signal relative to DMSO” value ([2]; 0.5 uM)?
Its value is 1.1543.

And the “CMV-LACZ in Myotubes, signal relative to DMSO” value ([2]; 1 uM)?
Its value is 0.9695.

What about the “CMV-LACZ in Myotubes, signal relative to DMSO” value ([2]; 5 uM) of the same compound?
The value was 1.1274.

What about the “CMV-LACZ in Myotubes, signal relative to DMSO” value ([2]; 10 uM) of the same compound?
Its value is 0.9662.

What about the “CMV-LACZ in Myotubes, signal relative to DMSO” value ([2]; 20 uM) of the same compound?
The value was 1.1800.

And the “CMV-LACZ in Myotubes, signal relative to DMSO” value ([2]; 40 uM)?
Its value is 1.2706.

And the “CMV-LACZ in Myoblasts (β-galactosidase activity relative to DMSO)” value ([3]; 0.5 uM)?
The value was 1.1043.

What about the “CMV-LACZ in Myoblasts (β-galactosidase activity relative to DMSO)” value ([3]; 1 uM) of the same compound?
The value was 0.9783.

What about the “CMV-LACZ in Myoblasts (β-galactosidase activity relative to DMSO)” value ([3]; 5 uM) of the same compound?
Its value is 0.9398.

What about the “CMV-LACZ in Myoblasts (β-galactosidase activity relative to DMSO)” value ([3]; 10 uM) of the same compound?
The value was 1.0036.

What about the “CMV-LACZ in Myoblasts (β-galactosidase activity relative to DMSO)” value ([3]; 20 uM) of the same compound?
Its value is 0.7152.

And the “CMV-LACZ in Myoblasts (β-galactosidase activity relative to DMSO)” value ([3]; 40 uM)?
Its value is 0.9937.

What about the “Burkin Assay in Myoblasts, signal relative to DMSO” value ([4]; 0.5 uM) of the same compound?
Its value is 0.8982.

And the “Burkin Assay in Myoblasts, signal relative to DMSO” value ([4]; 1 uM)?
Its value is 0.8539.

And the “Burkin Assay in Myoblasts, signal relative to DMSO” value ([4]; 5 uM)?
Its value is 1.003.

What about the “Burkin Assay in Myoblasts, signal relative to DMSO” value ([4]; 10 uM) of the same compound?
The value was 1.245.

What about the “Burkin Assay in Myoblasts, signal relative to DMSO” value ([4]; 20 uM) of the same compound?
Its value is 1.143.

And the “Burkin Assay in Myoblasts, signal relative to DMSO” value ([4]; 40 uM)?
The value was 1.029.

What does the source list for `Cc1ccc2c(c1)/C(=C/c1ccccc1F)C(=O)N2` [MLS001202330-01]?
Burkin Assay in Myotubes, value relative to DMSO ([1]; 0.5 uM): 0.9709; Burkin Assay in Myotubes, value relative to DMSO ([1]; 1 uM): 0.9174; Burkin Assay in Myotubes, value relative to DMSO ([1]; 5 uM): 0.9123; Burkin Assay in Myotubes, value relative to DMSO ([1]; 10 uM): 1.017; Burkin Assay in Myotubes, value relative to DMSO ([1]; 20 uM): 0.6303; Burkin Assay in Myotubes, value relative to DMSO ([1]; 40 uM): 0.6207; CMV-LACZ in Myotubes, value relative to DMSO ([2]; 0.5 uM): 0.8314; CMV-LACZ in Myotubes, value relative to DMSO ([2]; 1 uM): 0.9562; CMV-LACZ in Myotubes, value relative to DMSO ([2]; 5 uM): 0.9600; CMV-LACZ in Myotubes, value relative to DMSO ([2]; 10 uM): 0.8717; CMV-LACZ in Myotubes, value relative to DMSO ([2]; 20 uM): 0.9168; CMV-LACZ in Myotubes, value relative to DMSO ([2]; 40 uM): 0.8242; CMV-LACZ in Myoblasts, value relative to DMSO ([3]; 0.5 uM): 0.7417; CMV-LACZ in Myoblasts, value relative to DMSO ([3]; 1 uM): 0.9325; CMV-LACZ in Myoblasts, value relative to DMSO ([3]; 5 uM): 1.0099; CMV-LACZ in Myoblasts, value relative to DMSO ([3]; 10 uM): 0.9082; CMV-LACZ in Myoblasts, value relative to DMSO ([3]; 20 uM): 0.9511; CMV-LACZ in Myoblasts, value relative to DMSO ([3]; 40 uM): 0.7619; Burkin Assay in Myoblasts, value relative to DMSO ([4]; 0.5 uM): 0.9738; Burkin Assay in Myoblasts, value relative to DMSO ([4]; 1 uM): 1.028; Burkin Assay in Myoblasts, value relative to DMSO ([4]; 5 uM): 0.9558; Burkin Assay in Myoblasts, value relative to DMSO ([4]; 10 uM): 0.9341; Burkin Assay in Myoblasts, value relative to DMSO ([4]; 20 uM): 0.8305; Burkin Assay in Myoblasts, value relative to DMSO ([4]; 40 uM): 0.6468
